According to US20110251085A1, “IN VITRO METHOD TO DETERMINE WHETHER A DRUG CANDIDATE ACTIVE AGAINST A TARGET PROTEIN IS ACTIVE AGAINST A VARIANT OF SAID PROTEIN” (VIVALIS, priority 2008, published 2011):
Values joined by “and” are separate entries in the source; they are usually repeats but may differ in a detail not shown here. Equal values may be shown once.

Legend:
[1] = test system: NS5B from genotype 1a or 1b; assay: Genotype profiling with the 3D-Screen platform, 3D-sensor N21I4; assay type: cell-based, HCV genotypes 1a and 1b; details: Huh-7 cells, genotype 1a versus 1b, increasing amounts
Excerpt: Percentages of luciferase inhibition in the presence of the Indol Acetamid NS5B specific ligand cVVS-023476 were represented for N21 I4 peptide targeting NS5B from genotype 1a and 1b.
HCV variants are classified into six genotypes (from 1 to 6) associated with a lower case letter to indicate the subtype (Le Guillou-Guillemette et al., 2007). Since sensitivity to drugs could vary from one HCV genotype to the other (Manns et al., 2007), the investors tested whether the 3D-Screen platform could be able to discriminate such differences which is highly important for preclinical profiling of drug candidates. The inventors thus verified that the 3D-Sensor N21I4 did interact with the polymerase NS5B from genotypes 1a and 1b in Hela and Huh7 cells in an equivalent way.
Huh-7 cells were transiently transfected with three expression plasmids encoding the reporter gene luciferase, the target NS5B from genotype 1a or 1b and the conformation sensitive peptide N21I4. After incubation with increasing amounts of cVVS-023476, luciferase expression was measured.

[2] = test system: NS5BΔ21 Indol sensitive mutants; assay type: cell-based, HCV genotype 1b
Experimental: (§1) Percentages of reporter's inhibition were represented for cells incubated with a specific NS5B inhibitors at increasing concentrations for 24 hours.
(§2) Transfections were performed for 2 hours in 100 mm dishes in 2 to 4 million cells with 5 to 20 ug of total DNA complexed to jetPEI (PolyPLus transfection, Illkirch, France) with a N/P ratio of 8 The optimal ratio between the plasmids encoding for the luciferase reporter, the target and the selected 3Dsensor was: 3 ug/1 ug/0.5 ug. Cells were dissociated and 25000 cells per well were seeded in 96 well culture treated plates (BD Biosciences, Erembodegem, Belgium).
(§3) Cell culture supernatant was discarded and 100 ul of Lysis buffer were added to each well. Following […] of vigorous shaking, the lysate was transferred to white opaque 96 well-plates and 100 ul of Luciferin buffer were added. Chemi-luminescence measurement was performed immediately using a Microlumat LB96 luminometer (Berthold, Thoiry, France) with 1 or 10 sec integration time.
(§4) After incubation for 24 hours with increasing concentrations of cVVS023477 (a compound belonging to the Benzothiadiazin family) or cVVS-023476 (a compound belonging to the Indol N Acetamid family), luciferase expression was measured.

native NS5BΔ21 = biological target: T1, native NS5BΔ21 (Hepatitis C virus genotype 1b, UniProt P26662); assay: 3D-Screen-NS5B platform, luciferase reporter, Hela cells, native NS5BΔ21; assay type: cell-based, HCV genotype 1b; details: for inhibition of the luciferase signal (in words): native NS5B platform, Hela cells; for IC50: native NS5BΔ21, 3D-sensor N21C272, 24 hours, read-out: IC50 (luciferase inhibition)
T1 construct: expressed in transfected cells; host or cells: Hela cells, plasmid pVVS478
Experimental: as §2
Compound library's plates were thawed at room temperature. Drugs were handled by a Genesis workstation (Tecan, Lyon, France) and added to the cells at a 5 uM (in 0.5% DMSO) final concentration. Screening was performed by runs of twenty plates. Hits were identified by measurement of the luciferase activity.
as §3
Selected hits were synthesized and tested at concentrations varying between 0.01 uM and 100 uM final concentration so as to determine their IC50 on 3 independent experiments.
3D-sensors confirmed in yeast were further investigated in human cells. Among the reasons of choosing Hela cells figured their wide use, easiness of manipulation and capacity of replicating subgenomic HCV replicons (Zhu et al., 2003; Kato et al., 2005).
To validate whether drug's action on our system was stokiometric or not, Hela cells were transiently transfected with three expression plasmids encoding the reporter gene luciferase, the target protein and the conformation sensitive peptide N21C272. After incubation with increasing amounts of reference drugs cVVS-023476 or cVVS-023477, luciferase expression was measured.

[3] = biological target: native NS4A-NS3 full length protein (Hepatitis C virus genotype 1b, UniProt P26662); assay: 3D-Screen NS4A-NS3 full length platform, luciferase reporter, Hela cells, native; assay type: cell-based, HCV genotype 1b; design: the GSGS linker and the NS3 protease (residues 3-631); expressed in transfected cells; details: native NS4A-NS3 full length platform, Hela cells
Experimental: (§5) Cell culture supernatant was discarded and 100 ul of Lysis buffer were added to each well. Following 10 nm of vigorous shaking, the lysate was transferred to white opaque 96 well-plates and 100 ul of Luciferin buffer were added. Chemi-luminescence measurement was performed immediately using a Microlumat LB96 luminometer (Berthold, Thoiry, France) with 1 or 10 sec integration time.

native NS4A-NS3 protease = biological target: T2, native NS4A-NS3 protease (Hepatitis C virus genotype 1b, UniProt P26662, I1158V/V1140I); assay: 3D-Screen NS4A-NS3 protease platform, luciferase reporter, Hela cells, native; assay type: cell-based, HCV genotype 1b; details: native NS4A-NS3 protease platform, Hela cells
T2 construct: the NS3 protease (residues 3-181); expressed in transfected cells; host or cells: Hela cells
Experimental: as §5
3D-sensors confirmed in yeast were further investigated in Hela cells.

NS5BΔ21 = biological target: T3, NS5BΔ21 (Hepatitis C virus genotype 1b, UniProt P26662); assay type: cell-based, HCV genotype 1b; details: selective medium lacking histidine, leucine and tryptophane, supplemented with ligand, X-Gal overlay
T3 construct: lexA/truncated HCV polymerase lacking the C-terminal 21 amino-acids fusion protein as a bait; expressed in transfected cells; host or cells: Saccharomyces cerevisiae L40, plasmid pVVS468
Experimental: Yeast cells carrying the bait (NS5BΔ21-LexA) were transformed with the prey represented by a library of random peptides (in frame with the viral VP16 activation domain). […] The interacting peptides were then tested in presence of ligands known to induce conformational changes in the bait NS5B.
The naïve yeast was transformed with the pVVS468 (NS5BΔ21 fused to LexA) according to the Lithium Acetate transformation protocol (Schiestl et al, 1989). […] Resulting double transformants were spread on SD Agar medium lacking Tryptophan and Leucine, and incubated for 48 hours at 30° C. Colonies were then scraped and mixed. 1/500th of the suspension obtained was plated on SD Agar medium lacking Tryptophan, Leucine and Histidine to identify HIS3 reporter's activation. After 3 to 5 days of growth, an X-Gal overlay was performed to identify LacZ activation. An X-Gal solution was mixed with an equal volume of 1% agarose cooled to 50° C. then poured slowly over yeast colonies on the surface of agar plates. The individual clones that stained blue were picked up to be grown overnight in deep wells in order to be further analyzed.
Yeast colonies containing a peptide interacting with the bait were grown overnight in 96-well deepwells in trp-leu-liquid medium. They were then spotted using a plugger either on trp-leu-his-or trp-leu-solid medium supplemented with different concentrations of specific or non specific drugs or an equivalent amount of solvent (DMSO). […] Result was confirmed at least 3 times.
Yeast two-hybrid experiments were carried in the L40 strain (ATCC, Molsheim, France) transformed with a lexA/truncated HCV polymerase lacking the C-terminal 21 amino-acids fusion protein as a bait and the VVS001 peptide library as a prey. […] Conformation sensitive peptides or “3D-sensors” were then identified by addition to the selected individual yeast colonies of cVVS-023477 or cVVS-023476, two anti-NS5B drugs known to induce conformational changes in the target polymerase (FIG. 1b).

Hela cells = assay: Cytotoxicity assay (XTT) on transfected cells; assay type: cell-based, human; details: 100 μM
Experimental: Viability measurements were performed on cells transfected and seeded in 96 well plates as described above and incubated with drugs for 24 hours. 0.15 mg/ml of XTT solution (Roche Diagnostics, Meylan, France) were added to each well and the plates incubated for 1 hour at 37° C. The optical density of each well's cell culture supernatant was analysed using a spectrophotometer (at 450 nm with deduction of background signal at 690 nm).

ER = assay: Yeast two-hybrid spot test, control clone ER + 3D-sensor No 30-2; assay type: cell-based
Excerpt: (a) Isolation of peptides interacting with the NS5BΔ21 in the yeast two-hybrid-system. Yeast cells carrying the bait (NS5BΔ21-LexA) were transformed with the prey represented by a library of random peptides (in frame with the viral VP16 activation domain). Colonies growing on selective medium and staining blue allowed the isolation of individual peptides that would specifically interact with the polymerase. (b) Isolation of conformation sensitive peptides. The interacting peptides were then tested in presence of ligands known to induce conformational changes in the bait NS5B. The “3D-sensors” were thus identified as the ones whose binding to the target polymerase was prevented by known anti-NS5B. The corresponding colonies didn't show any expression of the selection or reporter gene. (c) Characterization of NS5BΔ21 “3D-sensors” in a spot test. Here were represented 2 selected yeast colonies: one carrying the ER and its specific peptide called No 30-2 isolated previously and used as a control, the other carrying the NS5BΔ21 and its specific peptide called N21C272. Both clones were spotted on selective medium lacking histidine, leucine and tryptophane, supplemented or not with polymerase ligands and overlayed with an X-Gal staining The NS5BΔ21+N21C272 clone grew on selective medium in the absence of any NS5B ligand and stained positive for LacZ. […]

NS5BΔ21 M414T mutant = biological target: T4, NS5BΔ21 M414T mutant (Hepatitis C virus genotype 1b, UniProt P26662, M2833T); assay: 3D-Screen-NS5B mutant profiling, Hela cells, M414T; assay type: cell-based, HCV genotype 1b; details: increasing concentrations, 24 hours
T4 construct: expressed in transfected cells; host or cells: Hela cells, plasmid pVVS516
Experimental: as §1, §2, §3, §4

NS5BΔ21 C316Y mutant = biological target: T5, NS5BΔ21 C316Y mutant (Hepatitis C virus genotype 1b, UniProt P26662, N2735Y); assay: 3D-Screen-NS5B mutant profiling, Hela cells, C316Y; assay type: cell-based, HCV genotype 1b; details: increasing concentrations, 24 hours
T5 construct: truncated HCV polymerase lacking the C-terminal 21 amino-acids; expressed in transfected cells; host or cells: Hela cells
Experimental: as §1, §2, §3, §4

NS5BΔ21 S368A mutant = biological target: T6, NS5BΔ21 S368A mutant (Hepatitis C virus genotype 1b, UniProt P26662, A2754S/A2757V/K2950R/L2476M/R2673K/S2787A/V2681I); assay: 3D-Screen-NS5B mutant profiling, Hela cells, S368A; assay type: cell-based, HCV genotype 1b; details: increasing concentrations, 24 hours
T6 construct: expressed in transfected cells; host or cells: Hela cells, plasmid pVVS799
Experimental: as §1, §2, §3, §4

[4] = listed as benzothiadiazidic compound

## CCN(CC)C1CCN(C(=O)Cn2c(-c3ccc(Cl)cc3)c(C3CCCCC3)c3ccc(C(=O)O)cc32)CC1 [cVVS-023476, 1-{[6-Carboxy-2-(4-chlorophenyl)-3-cyclohexyl-1H-indol-1-yl-]acetyl}-N,N-diethylpiperidin-4-aminium Chloride]
[1]
  sensitivity of NS5B from two different genotypes to the drug: slightly different sensitivity
[2]
  IC50: 0.2 to 2 µM
Native NS5BΔ21; HeLa, 1 uM final concentration, 24 hours, 3D-sensor N21C272, versus DMSO
  inhibition at 1 µM: 67%
Native NS5BΔ21; HeLa, 10 uM final concentration, 24 hours, 3D-sensor N21C272, versus DMSO
  inhibition at 10 µM: 82.6%
Native NS5BΔ21
  inhibition of the luciferase signal (in words): strong inhibition
  IC50: 0.3 µM and 0.2 to 2 µM
[3]
  reporter inhibition (in words): only on the NS5B platform
Native NS4A-NS3 protease
  reporter inhibition (in words): only on the NS5B platform

## N-1-cyclobutyl-4-hydroxyquinolon-3-yl-benzothiadiazin [cVVS-023477]
NS5BΔ21
  growth on selective medium and LacZ staining of the NS5BΔ21+N21C272 yeast clone: didn't show any growth
Hela cells
  toxicity (in words): not toxic
ER
  sensitivity of the control clone (ER + 3D sensor No 30.2 interaction) to ligand: not affected
NS5BΔ21 M414T mutant
  reporter inhibition (in words): the 50% signal inhibition was not reached
NS5BΔ21 M414T mutant; [4]
  reporter inhibition (in words): didn't show any noticeable reporter inhibition
NS5BΔ21 C316Y mutant
  reporter inhibition (in words): the 50% signal inhibition was not reached
NS5BΔ21 C316Y mutant; [4]
  reporter inhibition (in words): didn't show any noticeable reporter inhibition
Native NS5BΔ21; 1 uM final concentration, 24 hours, 3D-sensor N21C272, versus DMSO
  luciferase inhibition: 51%
Native NS5BΔ21; 10 uM final concentration, 24 hours, 3D-sensor N21C272, versus DMSO
  luciferase inhibition: 90% and 83.2%+/−7.5
Native NS5BΔ21
  inhibition of the luciferase signal (in words): strongly reduced
  IC50: 3.2 µM
NS5BΔ21 S368A mutant
  reporter inhibition (in words): didn't show any noticeable reporter inhibition
